The target of data set [1] is T1, Chimera 1 backbone (Chimera 2, Chimera 3, Chimera 4) (Cupriavidus necator, UniProt P14697, N37E/S38A/R40K/R41P, form not given).
T1 construct: gene phaB; AAR^Cn1 with N37-R41 replaced by E37-P41 of AAR^CAp (E37, F38, K40, P41 told in text); E. coli BL21(DE3), IMAC
The data set can be described thus: reaction progress curve analysis, absorbance […] nm. The format is biochemical. To be noted: AcAcCoA 2 mM, MOPS 50 mM, NaCl 5 mM, MgCl2 5 mM, pH 7.0, 30 °C, apparent kcat, read-out: Chimera3.

Data set [2] has as its target T2, Chimera 1 backbone (Chimera 2, Chimera 3, Chimera 4) (Cupriavidus necator, UniProt P14697, N37E/S38E/R40Q/R41P, form not given).
T2 construct: gene phaB; AAR^Cn1 with N37-R41 replaced by E37-P41 of AAR^CAp (E37, F38, K40, P41 told in text); E. coli BL21(DE3), IMAC
The description is as above. Type of data set: biochemical. To be noted: AcAcCoA 2 mM, MOPS 50 mM, NaCl 5 mM, MgCl2 5 mM, pH 7.0, 30 °C, apparent kcat, read-out: Chimera4.

The target of data set [3] is T3, Chimera 1 backbone (Chimera 2, Chimera 3, Chimera 4) (Cupriavidus necator, UniProt P14697, N37E/S38F/R40K/R41G, form not given).
T3 construct: gene phaB; AAR^Cn1 with N37-R41 replaced by E37-P41 of AAR^CAp (E37, F38, K40, P41 told in text); E. coli BL21(DE3), IMAC
T3 sequence (P14697 whole entry N37E/S38F/R40K/R41G, form open): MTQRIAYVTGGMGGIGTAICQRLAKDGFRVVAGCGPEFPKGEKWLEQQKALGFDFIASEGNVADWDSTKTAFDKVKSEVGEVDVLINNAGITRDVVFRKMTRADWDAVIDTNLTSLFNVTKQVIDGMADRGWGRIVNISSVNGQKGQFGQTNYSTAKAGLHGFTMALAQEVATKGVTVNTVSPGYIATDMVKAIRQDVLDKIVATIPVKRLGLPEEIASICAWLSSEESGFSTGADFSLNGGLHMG
The description is as above. The format is biochemical. The settings on record: AcAcCoA 2 mM, MOPS 50 mM, NaCl 5 mM, MgCl2 5 mM, pH 7.0, 30 °C, apparent kcat, read-out: Chimera2.

Data set [4] addresses T4, Chimera 5 (Cupriavidus necator, UniProt P14697, G33A/N37E/S38F/R40K/R41P/E46K, form not given).
T4 construct: gene phaB; AAR^Cn1 with segment G33-E46 replaced by A33-K46 of AAR^CAp (residues 36 and 44 conserved); E. coli BL21(DE3), IMAC
Described as above. The format is biochemical. To be noted: AcAcCoA 2 mM; MOPS 50 mM, NaCl 5 mM, MgCl2 5 mM, pH 7.0, 30 °C; apparent kcat; read-out: Chimera5.

Data set [5] concerns the target T4, Chimera 5. Nature of the data set: initial rates and reaction progress curves, global fit. To be noted: MOPS 50 mM, NaCl 5 mM, MgCl2 5 mM, pH 7.0, 30 °C. The format is biochemical. From the text: initial rates and reaction progress curves, global fit on Chimera 5
Substrate in data set [6]: NC(=O)C1=CN([C@@H]2O[C@H](COP(=O)(O)OP(=O)(O)OC[C@H]3O[C@@H](n4cnc5c(N)ncnc54)[C@H](O)[C@@H]3O)[C@@H](O)[C@H]2O)C=CC1
Nature of the data set: purified protein. The format is biochemical, Cupriavidus necator. The settings on record: AcAcCoA 2 mM, MOPS 50 mM, NaCl 5 mM, MgCl2 5 mM, pH 7.0, 30 °C, apparent kcat, varied: cofactor.

Substrate in data set [7]: NC(=O)C1=CN([C@@H]2O[C@H](COP(=O)(O)OP(=O)(O)OC[C@H]3O[C@@H](n4cnc5c(N)ncnc54)[C@H](OP(=O)(O)O)[C@@H]3O)[C@@H](O)[C@H]2O)C=CC1
Nature of the data set: purified protein. The format is biochemical, Cupriavidus necator. The settings on record: AcAcCoA 2 mM, MOPS 50 mM, NaCl 5 mM, MgCl2 5 mM, pH 7.0, 30 °C, apparent kcat, varied: cofactor.

Here are results for 4 molecules from PMC8904767, “Engineering an acetoacetyl-CoA reductase from Cupriavidus necator toward NADH preference under physiological conditions” (Scientific Reports, 2022).

What is called kcat is the number of substrate molecules converted per active site and unit of time at saturation. The kcat/Km is the turnover number divided by the Michaelis constant.

T4 sequence (P14697 whole entry G33A/N37E/S38F/R40K/R41P/E46K, form open): as the sequence (P14697 whole entry N37E/S38F/R40K/R41G, form open) above, with G33A, G41P, E46K counted along it
T2 sequence (P14697 whole entry N37E/S38E/R40Q/R41P, form open): as the sequence (P14697 whole entry N37E/S38F/R40K/R41G, form open) above, with F38E, K40Q, G41P counted along it
T1 sequence (P14697 whole entry N37E/S38A/R40K/R41P, form open): as the sequence (P14697 whole entry N37E/S38F/R40K/R41G, form open) above, with F38A, G41P counted along it

Turning to `NC(=O)C1=CN([C@@H]2O[C@H](COP(=O)(O)OP(=O)(O)OC[C@H]3O[C@@H](n4cnc5c(N)ncnc54)[C@H](O)[C@@H]3O)[C@@H](O)[C@H]2O)C=CC1` [NADH], the Km in data set [1] came to 886 µM; in data set [2], 618 µM; in data set [3] it was 140 µM; in data set [4] it was 43 µM.

In the case of `CC(=O)CC(=O)SCCNC(=O)CCNC(=O)[C@H](O)C(C)(C)COP(=O)(O)OP(=O)(O)OC[C@H]1O[C@@H](n2cnc3c(N)ncnc32)[C@H](O)[C@@H]1OP(=O)(O)O` [AcAcCoA], the Km in data set [5] (NADH 1 mM, substrate inhibition model with KiS = KM) was 50 µM. For the same molecule, in data set [5] (substrate inhibition, second site, NADPH 1 mM), the NADPH is 324 [195–465] µM.

Regarding `NC(=O)C1=CN([C@@H]2O[C@H](COP(=O)(O)OP(=O)(O)OC[C@H]3O[C@@H](n4cnc5c(N)ncnc54)[C@H](OP(=O)(O)O)[C@@H]3O)[C@@H](O)[C@H]2O)C=CC1` [NADPH], the Km came out at 1750 µM in data set [1], 120 µM in data set [2], 1120 µM in data set [3] and 2790 µM in data set [4].

B1: AAR^Cn1 (acetoacetyl-CoA reductase encoded by phaB1) (Cupriavidus necator H16) (protein)
chain: MTQRIAYVTGGMGGIGTAICQRLAKDGFRVVAGCGPNSPRREKWLEQQKALGFDFIASEGNVADWDSTKTAFDKVKSEVGEVDVLINNAGITRDVVFRKMTRADWDAVIDTNLTSLFNVTKQVIDGMADRGWGRIVNISSVNGQKGQFGQTNYSTAKAGLHGFTMALAQEVATKGVTVNTVSPGYIATDMVKAIRQDVLDKIVATIPVKRLGLPEEIASICAWLSSEESGFSTGADFSLNGGLHMG
notes: recombinant, expressed in E. coli BL21(DE3), purified by IMAC
As for B1, in data set [6], the Km was 819 [688–975] µM, the kcat was determined as 10.3 s⁻¹ and the kcat/Km came out at 13000 M⁻¹ s⁻¹. For the same molecule, in data set [7], the Km was 44 [40–49] µM, the kcat was found to be 5.2 s⁻¹ and the catalytic efficiency (kcat/Km) was 118000 M⁻¹ s⁻¹.
